This is an account of results in article PMC5261566, “The AMPK Activator A769662 Blocks Voltage-Gated Sodium Channels: Discovery of a Novel Pharmacophore with Potential Utility for Analgesic Development” (PLoS ONE, 2017).

Molecules are shown by their SMILES.

For the experiment, the target named is T1, Nav1.7 (hNav1.7) (Homo sapiens, UniProt Q15858, F1748A/Y1755A).
T1 construct: gene SCN9A; F1737A/Y1744A mutant hNav1.7 transiently expressed in HEK293 cells
Put plainly: whole-cell patch clamp, % reduction of peak current at […]. As to conditions: read-out: % block at 200 μM. The experiment is classed as cell-based. (In general: The patch-clamp technique gives a direct electrical read-out from membranes.)

T1 sequence (Q15858 whole entry F1748A/Y1755A): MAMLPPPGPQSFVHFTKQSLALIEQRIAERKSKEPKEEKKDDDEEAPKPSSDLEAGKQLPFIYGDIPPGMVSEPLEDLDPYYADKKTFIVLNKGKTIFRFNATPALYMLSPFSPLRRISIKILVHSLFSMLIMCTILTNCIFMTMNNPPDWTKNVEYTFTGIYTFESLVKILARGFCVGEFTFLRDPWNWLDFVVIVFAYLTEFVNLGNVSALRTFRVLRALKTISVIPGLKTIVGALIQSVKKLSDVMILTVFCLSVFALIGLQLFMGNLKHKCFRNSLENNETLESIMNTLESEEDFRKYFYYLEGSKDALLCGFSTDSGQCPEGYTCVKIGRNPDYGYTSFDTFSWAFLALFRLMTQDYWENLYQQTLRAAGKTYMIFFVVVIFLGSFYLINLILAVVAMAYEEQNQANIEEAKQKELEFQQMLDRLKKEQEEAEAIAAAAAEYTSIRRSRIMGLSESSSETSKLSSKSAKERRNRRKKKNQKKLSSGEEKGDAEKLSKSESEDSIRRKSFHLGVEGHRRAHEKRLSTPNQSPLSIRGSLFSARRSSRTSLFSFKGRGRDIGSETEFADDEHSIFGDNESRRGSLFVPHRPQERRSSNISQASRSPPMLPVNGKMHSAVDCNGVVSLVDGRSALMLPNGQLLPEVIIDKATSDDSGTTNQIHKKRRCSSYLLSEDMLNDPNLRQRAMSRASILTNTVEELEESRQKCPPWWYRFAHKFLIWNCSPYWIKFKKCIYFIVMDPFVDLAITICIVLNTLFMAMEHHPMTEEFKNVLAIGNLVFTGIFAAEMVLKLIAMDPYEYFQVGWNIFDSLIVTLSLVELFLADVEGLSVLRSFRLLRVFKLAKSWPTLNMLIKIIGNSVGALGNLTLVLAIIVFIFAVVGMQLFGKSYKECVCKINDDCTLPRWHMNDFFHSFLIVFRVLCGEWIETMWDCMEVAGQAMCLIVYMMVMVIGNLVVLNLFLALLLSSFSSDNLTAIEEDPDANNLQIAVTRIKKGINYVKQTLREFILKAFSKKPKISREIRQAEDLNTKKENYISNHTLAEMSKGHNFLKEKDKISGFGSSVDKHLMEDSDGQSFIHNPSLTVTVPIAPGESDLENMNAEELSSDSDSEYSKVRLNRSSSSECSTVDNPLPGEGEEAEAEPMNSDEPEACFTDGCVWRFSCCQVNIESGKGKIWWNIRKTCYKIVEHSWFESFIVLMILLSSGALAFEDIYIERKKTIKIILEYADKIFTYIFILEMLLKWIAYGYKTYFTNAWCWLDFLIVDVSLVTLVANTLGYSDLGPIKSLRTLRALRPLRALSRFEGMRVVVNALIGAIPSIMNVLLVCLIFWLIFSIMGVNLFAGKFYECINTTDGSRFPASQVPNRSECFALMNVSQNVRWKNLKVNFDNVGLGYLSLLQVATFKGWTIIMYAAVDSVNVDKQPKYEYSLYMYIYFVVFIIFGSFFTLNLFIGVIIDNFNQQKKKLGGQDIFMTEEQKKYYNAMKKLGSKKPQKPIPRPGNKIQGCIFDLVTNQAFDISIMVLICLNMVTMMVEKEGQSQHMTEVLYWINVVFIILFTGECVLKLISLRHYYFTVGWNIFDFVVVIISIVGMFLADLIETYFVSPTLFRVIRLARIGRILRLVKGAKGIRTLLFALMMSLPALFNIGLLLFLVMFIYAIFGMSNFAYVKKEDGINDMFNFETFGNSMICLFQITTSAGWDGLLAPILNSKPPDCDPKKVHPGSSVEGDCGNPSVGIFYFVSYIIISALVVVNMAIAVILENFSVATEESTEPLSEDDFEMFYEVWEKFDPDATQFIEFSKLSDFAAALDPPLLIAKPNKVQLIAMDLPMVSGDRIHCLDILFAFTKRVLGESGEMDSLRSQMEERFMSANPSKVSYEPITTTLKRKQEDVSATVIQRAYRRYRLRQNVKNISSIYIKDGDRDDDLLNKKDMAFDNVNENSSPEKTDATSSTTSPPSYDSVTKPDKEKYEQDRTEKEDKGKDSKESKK

For the compound `N#Cc1c(O)c2c(-c3ccc(-c4ccccc4O)cc3)csc2[nH]c1=O` [A769662], the inhibition at 200 µM was determined as 38%.
